Reference: paper PMC8617681 (Pharmaceuticals, 2021)
“Also recorded” adds a separate entry of the source. Blank lines part the entries; values can stand above or below the molecule they belong to.

How the values were obtained:
[1] = parameters: method as in PMID 30253203; conditions: oral brigatinib, Abcb1a/1b;Abcg2-/- mice; cited from earlier work
human OATP1B3 = biological target: T1, human OATP1B3 (Homo sapiens, UniProt Q9NPD5); assay: Cellular uptake in OATP1B3-overexpressing HEK293 cells; format: in vitro ADME; conditions: 0.2 µM, 2.5 min incubation, HEK293 OATP1B3, positive control
T1 construct: Werner Siegmund and Dr. Markus Keiser (University of Greifswald); host or cells: HEK293
T1 sequence (Q9NPD5 1-702): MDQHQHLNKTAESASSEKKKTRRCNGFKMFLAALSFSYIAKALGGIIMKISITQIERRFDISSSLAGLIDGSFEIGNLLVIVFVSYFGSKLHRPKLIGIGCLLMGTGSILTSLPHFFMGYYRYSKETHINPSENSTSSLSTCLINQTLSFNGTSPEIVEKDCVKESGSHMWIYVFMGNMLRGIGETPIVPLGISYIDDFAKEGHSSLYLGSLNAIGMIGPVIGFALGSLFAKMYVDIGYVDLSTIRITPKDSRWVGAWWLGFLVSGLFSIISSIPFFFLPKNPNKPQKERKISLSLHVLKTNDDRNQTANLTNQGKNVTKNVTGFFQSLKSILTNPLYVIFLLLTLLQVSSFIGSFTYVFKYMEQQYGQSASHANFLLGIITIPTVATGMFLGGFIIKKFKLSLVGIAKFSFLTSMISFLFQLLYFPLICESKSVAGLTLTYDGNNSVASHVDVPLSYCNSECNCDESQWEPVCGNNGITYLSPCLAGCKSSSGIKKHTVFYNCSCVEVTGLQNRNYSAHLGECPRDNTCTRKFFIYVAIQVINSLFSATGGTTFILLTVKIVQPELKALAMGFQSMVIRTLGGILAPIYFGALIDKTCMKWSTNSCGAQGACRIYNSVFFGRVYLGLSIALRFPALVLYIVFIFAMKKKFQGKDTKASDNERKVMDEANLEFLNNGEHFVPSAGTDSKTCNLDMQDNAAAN
Protocol: (§1) HEK293 cells, vector-transfected or human (h)SLCO1A2, hSLCO1B1 or hSLCO1B3 cDNA-transfected were kind gifts from Prof. Werner Siegmund and Dr. Markus Keiser (University of Greifswald, Greifswald, Germany). All the HEK293 cell lines were maintained in DMEM supplemented with 10% (v/v) FBS, 1% penicillin–streptomycin mix at 37 °C in 5% (v/v) CO2 and 500 μg/mL G418. Cells were first seeded in 12-well plates [coated with 50 mg/L poly (l-lysine) and 50 mg/L poly (l-ornithine)] at a density of 1.0 × 10^5 cells/well. For the uptake study, in order to induce the expression of OATP transporters, the cell culture medium was replaced with culture medium supplemented with 5 mM sodium butyrate 24 h before performing the uptake assay.
(§2) The uptake transport study was performed as described previously. […] The Krebs–Henseleit solution was prepared from Krebs–Henseleit-buffer modified powder and supplemented with 25 mM NaHCO3 and 2.5 mM CaCl2 adjusted to pH 6.4 with 1 M HCL. At 2.5 min, the incubation buffer was removed, and uptake was terminated by adding 1 mL of ice-cold Krebs–Henseleit buffer, followed by two times washing with 1 mL of ice-cold Krebs–Henseleit buffer. […] The cellular protein amount was determined by the Bradford method using 10 μL of the cell lysates with bovine serum albumin as a standard.

human OATP1A2 = biological target: T2, human OATP1A2 (Homo sapiens, UniProt P46721); assay: Cellular uptake in OATP1A2-overexpressing HEK293 cells; format: in vitro ADME; conditions: 0.2 µM, 2.5 min incubation, HEK293 OATP1A2, positive control
T2 construct: Werner Siegmund and Dr. Markus Keiser (University of Greifswald); host or cells: HEK293
T2 sequence (P46721 1-670): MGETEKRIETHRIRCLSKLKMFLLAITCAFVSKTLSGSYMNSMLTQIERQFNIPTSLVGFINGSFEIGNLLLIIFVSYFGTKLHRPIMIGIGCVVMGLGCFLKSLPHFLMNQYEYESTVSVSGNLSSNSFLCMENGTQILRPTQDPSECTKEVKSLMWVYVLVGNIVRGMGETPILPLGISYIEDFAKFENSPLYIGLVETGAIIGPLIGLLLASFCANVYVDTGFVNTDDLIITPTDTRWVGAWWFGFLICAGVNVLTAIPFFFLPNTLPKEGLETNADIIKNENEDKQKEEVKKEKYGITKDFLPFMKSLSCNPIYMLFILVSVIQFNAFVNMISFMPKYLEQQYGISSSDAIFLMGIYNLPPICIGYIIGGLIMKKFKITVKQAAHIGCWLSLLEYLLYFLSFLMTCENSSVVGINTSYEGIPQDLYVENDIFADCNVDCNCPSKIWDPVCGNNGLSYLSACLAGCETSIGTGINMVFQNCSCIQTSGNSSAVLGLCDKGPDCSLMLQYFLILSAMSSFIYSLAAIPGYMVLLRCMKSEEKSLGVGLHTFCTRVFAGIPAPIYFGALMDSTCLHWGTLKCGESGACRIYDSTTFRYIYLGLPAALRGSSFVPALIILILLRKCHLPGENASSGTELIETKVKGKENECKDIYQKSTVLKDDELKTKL
Protocol: as §1, §2

human OATP1B1 = biological target: T3, human OATP1B1 (Homo sapiens, UniProt Q9Y6L6); assay: Cellular uptake in OATP1B1-overexpressing HEK293 cells; format: in vitro ADME; conditions: 0.2 µM, 2.5 min incubation, HEK293 OATP1B1, positive control
T3 construct: Werner Siegmund and Dr. Markus Keiser (University of Greifswald); host or cells: HEK293
T3 sequence (Q9Y6L6 1-691): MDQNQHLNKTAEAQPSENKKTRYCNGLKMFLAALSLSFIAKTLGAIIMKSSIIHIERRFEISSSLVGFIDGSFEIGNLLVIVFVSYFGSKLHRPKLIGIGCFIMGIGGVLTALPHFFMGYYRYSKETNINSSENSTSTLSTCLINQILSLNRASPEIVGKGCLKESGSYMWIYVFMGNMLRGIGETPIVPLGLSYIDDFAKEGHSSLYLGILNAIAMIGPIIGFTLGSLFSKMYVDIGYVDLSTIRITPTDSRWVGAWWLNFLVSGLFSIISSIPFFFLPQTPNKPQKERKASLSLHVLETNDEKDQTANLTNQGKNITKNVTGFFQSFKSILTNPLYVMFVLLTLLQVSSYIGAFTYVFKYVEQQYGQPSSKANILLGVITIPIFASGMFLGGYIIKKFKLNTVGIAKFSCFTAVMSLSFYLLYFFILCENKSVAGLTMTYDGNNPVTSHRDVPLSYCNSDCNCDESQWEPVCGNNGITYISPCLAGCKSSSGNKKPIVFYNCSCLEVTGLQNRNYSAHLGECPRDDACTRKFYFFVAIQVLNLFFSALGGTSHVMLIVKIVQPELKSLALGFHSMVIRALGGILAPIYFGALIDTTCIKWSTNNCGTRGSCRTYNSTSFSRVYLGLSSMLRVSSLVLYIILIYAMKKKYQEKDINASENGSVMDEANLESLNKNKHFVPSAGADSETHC
Protocol: as §1, §2

[2] = oral, mice; cited from earlier work

Structure (SMILES): COc1cc(N2CCC(N3CCN(C)CC3)CC2)ccc1Nc1ncc(Cl)c(Nc2ccccc2P(C)(C)=O)n1 [brigatinib]
acute toxicity [1]: severe and even lethal acute toxicity; also recorded: sometimes severe and lethal toxicity

uptake compared to vector control cells (human OATP1B3): efficiently taken up
uptake compared to vector control cells (human OATP1A2): efficiently taken up
uptake compared to vector control cells (human OATP1B1): efficiently taken up
Structure (SMILES): CC(C)c1nc(N(C)S(C)(=O)=O)nc(-c2ccc(F)cc2)c1/C=C/[C@@H](O)C[C@@H](O)CC(=O)O [Rosuvastatin]

Structure (SMILES): COc1cc2c(cc1OC)CN(CCc1ccc(NC(=O)c3cccc4c(=O)c5cccc(OC)c5[nH]c34)cc1)CC2 [elacridar]
Tmax [2]: about 4 h
